# Patent US8517736B2, “Method for alleviating the undesired side effects of dental bleaching” (Dr. Gunnar Rolla Consultant AS, priority 2011, dated 2013)
# Read-outs that look alike come from different tables or passages of the source.
# Columns and labels:
# [1] = test system: hypersensitive bleached front teeth
# Description: A volunteer had performed a self-bleaching procedure on their teeth, using a home kit. They complained and described their front teeth as extremely sensitive for changes of temperature in drinks or food. The teeth were rinsed carefully with water at room temperature, and isolated with cotton rolls. The teeth were kept dry and then treated with a generous amount of a saturated aqueous solution of Ca(OH)2, at an acceptable temperature, for a period of about 5 minutes. After a few additional minutes the cotton rolls were removed, and treatment with an aqueous solution of 2.0% by weight of NaF was performed, to induce formation CaF2, to stabilize the calcium added.
# [2] = saturated, or less than saturated, aqueous solutions
# [3] = SEM micrographs of bleached human tooth enamel surface; settings: human tooth enamel after bleaching with peroxide
# Description: FIG. 2: A SEM micrograph showing the same tooth surface (from FIG. 1) covered with a film of dehydrated Ca(OH)2.
# FIG. 3: A SEM micrograph showing the same tooth surface (from FIG. 2) subsequently treated with 2% by weight NaF-solution.
SMILES,tooth colour after treatment ([1]; after saturated Ca(OH)2 then 2.0% NaF treatment),reappearance of sensitivity after treatment ([1]; follow-up after saturated Ca(OH)2 then 2.0% NaF treatment),"hypersensitivity of bleached teeth after treatment ([1]; volunteer, saturated aqueous Ca(OH)2 about 5 minutes, followed by aqueous 2.0% by weight NaF)",pH [2],pH ([2]; listed as calcium hydroxide),"enamel surface appearance after bleaching (SEM, FIG. 1) [3]"
"[Ca+2].[OH-].[OH-] [Ca(OH)2, calcium hydroxide]",maintained an acceptable colour,sensitivity has not reappeared,hypersensitivity was eliminated,> 10,14,
"OO [peroxide, hydrogen peroxide]",,,,,,pitted and damaged by demineralization
